Measurements as given in patent US9150837B2, “Polyethylene glycolated superoxide dismutase mimetics” (Galera Therapeutics, LLC, priority 2004, dated 2015).

Tested on: carrageenan-induced hyperalgesia
Conditions: 0.1 mg/kg, s.c.
Method: Male Sprague-Dawley rats (175-200 g, Harlan Sprague Dawley, Indianapolis, Ind., USA) were housed and cared for in accordance with the guidelines of the Institutional Animal Care and Use Committee and in accordance with NIH guidelines on laboratory animal welfare. Rats received a subplantar injection of carrageenan (0.1 ml of a 1% suspension in 0.85% saline) into the right hind paw. A hyperalgesic response to heat was determined in the animals by Hargreaves' method (Hargreaves et al., 1988). Rats were individually confined and acclimated to Plexiglas chambers for 30 min. A mobile unit consisting of a high intensity projector bulb was positioned to deliver a thermal stimulus directly to an individual hind paw from beneath the chamber. The withdrawal latency period of injected and contralateral paws was determined to the nearest 0.1 sec with an electronic clock circuit and thermocouple. […] Each point will represent the change in withdrawal latency compared with control measurements taken prior to carrageenan injection.

For CN1CC[C@]23c4c5ccc(O)c4O[C@H]2[C@@H](O)C=C[C@H]3[C@H]1C5 [morphine], which inhibition of hyperalgesia is on record?
Its inhibition of hyperalgesia is “modest inhibition of hyperalgesia”.
